Results published in patent EP2313424B1, “ANIONIC PREGNANE COMPOUNDS, METHOD FOR THEIR PRODUCING AND USE OF THEM” (Ústav organické chemie a biochemie Akademie ved Ceské …, priority 2008, dated 2010).
pIC50: −log10 of the molar value. Where two headings read alike, the source gives them in different places.

System: NMDA receptor
Test: Whole-cell voltage-clamp recording of NMDA-induced currents in cultured hippocampal neurons
Format: cell-based, rats
Details: for pIC50: estimated from relative inhibition at 100 µM steroid with the logistic equation, apparent Hill coefficient 1.2, 100 µM NMDA; for mean inhibitory effect on NMDA-induced currents: 100 µM steroid, responses elicited by 100 µM NMDA
[1] = relative degree of inhibition by 100 µM steroid of current responses induced by fast application of 100 µM NMDA, cultured hippocampal neurons, holding potential -60 mV
[2] = cultured hippocampal neurons, holding potential -60 mV

Row | Molecule | Inhibition (X) | pIC50 (cultured hippocampal neurons) | Inhibition (X) [1] | mean inhibitory effect on NMDA-induced currents [2] | mean inhibitory effect on NMDA-induced currents (cultured hippocampal neurons, holding potential -60 mV, listed as 5β-pregnenolone sulfate)
1 | 20-Oxo-5α-pregnane-3α,7α-diyl 3-Sulfate 7-Acetate Pyridinium Salt [Example 4] | 35.2 | 3.78 |  |  | 
2 | 20-Oxo-5α-pregnane-3α,7α-diyl 3-Sulfate 7-Nicotinate Pyridinium Salt [Example 10] |  | 3.81 | 37.8 |  | 
3 | 20-Oxo-5β-pregnan-3α,7α-diyl 3-Sulfate 7-Acetate Pyridinium Salt [Example 13] |  | 3.73 | 34.1 |  | 
4 | 20-Oxo-5β-pregnane-3α,7α-diyl 3-Sulfate 7-Nicotinate Pyridinium Salt [Example 19] |  | 3.94 | 46.9 |  | 
5 | CC(=O)O[C@@H]1C[C@H]2C[C@H](OC(=O)CCC(=O)O)CC[C@]2(C)[C@H]2CC[C@]3(C)[C@@H](C(C)=O)CC[C@H]3[C@H]12 [Example 3, 20-Oxo-5α-pregnane-3α,7α-diyl 3-Hemisuccinate 7-Acetate] |  | 3.42 | 17.4 |  | 
6 | CC(=O)O[C@@H]1C[C@H]2C[C@H](OS(=O)(=O)[O-])CC[C@]2(C)[C@H]2CC[C@]3(C)[C@@H](C(C)=O)CC[C@H]3[C@H]12.[Na+] [Example 5, 20-Oxo-5α-pregnan-3α,7α-diyl 3-Sulfate 7-Acetate Sodium Salt] |  |  |  | 17% | 
7 | CC(=O)O[C@@H]1C[C@@H]2C[C@H](OC(=O)CCC(=O)O)CC[C@]2(C)[C@H]2CC[C@]3(C)[C@@H](C(C)=O)CC[C@H]3[C@H]12 [Example 12, 20-Oxo-5β-pregnane-3α,7α-diyl 3-Hemisuccinate 7-Acetate] |  | 3.52 | 21.4 |  | 
8 | pregnanolone sulfate [reference compound] |  |  |  | 71.3 ± 5.0% | 71%
